Reference: patent US20110105626A1, “USE OF CYCLOHEXANEHEXOL DERIVATIVES FOR THE TREATMENT OF POLYGLUTAMINE DISEASES” (priority 2007, published 2011)
“Also recorded” adds a separate entry of the source.

How the values were obtained:
Assay type in all cases: cell-based
HttQ103P-EGFP = target: T1, HttQ103P-EGFP (Homo sapiens, UniProt P42858); test: Aggregation of HttQ103P-EGFP in inducible PC-12 cells (visual counts by fluorescent microscopy)
T1 construct: expressed in transfected cells; host or cells: PC-12 cells, stably transfected, pIND construct induced with 5 µM ponasterone
T1 sequence (P42858 with tags, fused parts or gaps limits assumed): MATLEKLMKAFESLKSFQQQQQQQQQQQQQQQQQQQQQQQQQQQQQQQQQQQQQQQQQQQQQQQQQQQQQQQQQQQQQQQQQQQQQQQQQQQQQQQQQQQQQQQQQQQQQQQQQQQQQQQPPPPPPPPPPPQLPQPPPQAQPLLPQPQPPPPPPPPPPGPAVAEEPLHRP
Protocol: (§1) Inducible PC-12 cells. PC-12 cells stably transfected with pIND constructs containing HttQ103P-EGFP. The cells upon stimulation with 5 μM ponasterone for 48 hrs express poly-Q protein with a EGFP carboxy-terminal epitope tag (Apostol, B. et al., PNAS 100, 5950-5955, 2003). Chemical Compound screen in PC-12 cells. Cells were plated in 6 well plates and grown overnight, then treated with 5 μM ponasterone for 48 hrs in the presence and absence of cystamine bitartrate or scyllo-inositol. Both were dissolved in water, and added directly to cultures at a final concentration of 1-50 μM and aggregation calculated. Visual counts of aggregates and EGFP-positive cells were performed using fluorescent microscopy. At least 300 cells were counted from 5-6 fields in three wells in each of three independent experiments. Aggregation is expressed as the percentage of cells with aggregates versus total number of EGFP-positive cells. Chemical compound was assessed for cellular toxicity by evaluating cell morphology, trypan blue exclusion and cell viability. Protein Expression. Cells were plated in 6 well plates and grown overnight, then treated with 5 μM ponasterone for 48 hrs in the presence and absence of cystamine bitartrate or scyllo-inositol. Cells were lysed in hypotonic solution containing 20 mM HEPES ph 7.5, 5 mM NaCl, 10 mM NaF, 2 mM EDTA, 1% Nonidet P-40, 1 mM sodium, orthovanadate, and protease inhibitors. Protein concentration was determined using the Bradford assay and 100 μg of protein was used for western blotting. Primary antibody to poly-glutamine was used to detect HttQ103, while GAPDH was used as an internal house-keeping standard. Westerns were scanned and densitometry was used to quantify PolyQ expression.
A hallmark of polyglutamine diseases is the accumulation of intracellular aggregates in the cytosol and nucleus of neurons. Therefore, the inducible PC-12 cell lines were utilized to address the question of inhibition of HttQ103P-EFGP aggregation using scyllo-inositol and a previously identified aggregation inhibitor, cystamine bitartrate. Aggregates are readily distinguished from soluble Htt, by intense small aggregate formation versus diffuse cellular staining pattern of soluble Htt (FIG. 1). Simultaneously with induction of HttQ103P-EFGP expression, scyllo-inositol was added to the cells in a final concentration range from 0-100 μM, with 50 μM cystamine bitartrate as a positive control. Cells were photographed using fluorescence microscopy and total cells expressing EFGP counted, and cells containing aggregates. Efficacy of treatment was determined by a reduction in the percentage of cells containing EGFP aggregates (FIG. 1, 2).

Htt103Q-EGFP = target: T2, Htt103Q-EGFP (Homo sapiens, UniProt P42858); test: Western blot of poly-Q protein expression in inducible PC-12 cells, normalized to GAPDH; settings: for Htt103Q-EGFP protein expression level (western blot): cystamine bitartrate treatment
T2 construct: expressed in transfected cells; host or cells: PC-12 cells, stably transfected, pIND construct induced with 5 µM ponasterone
T2 sequence (P42858 with tags, fused parts or gaps limits assumed): as above
Protocol: as §1
In order to examine changes in Htt103Q-EGFP protein concentration as a function of scyllo-inositol treatment, western blots were used (FIG. 3, 4). Cells were treated as above and then harvested for western blot analyses using a poly-glutamine specific antibody, and normalized to the housekeeping protein, GAPDH (FIG. 3). Blots were scanned and densitometry of each lane performed, to normalize for variations in protein loading pixels were normalized to those of GAPDH.

PC-12 cells = test system: PC-12 cells
Protocol: as §1, with “Visual counts of aggregates and EGFP-positive cells were performed using fluorescent microscopy.” left out, “Protein Expression. Cells were plated in 6 well plates and grown overnight, then treated with 5 μM ponasterone for 48 hrs in the presence and absence of cystamine bitartrate or scyllo-inositol. Cells were lysed in hypotonic solution containing 20 mM HEPES ph 7.5, 5 mM NaCl, 10 mM NaF, 2 mM EDTA, 1% Nonidet P-40, 1 mM sodium, orthovanadate, and protease inhibitors.” left out, “Primary antibody to poly-glutamine was used to detect HttQ103, while GAPDH was used as an internal house-keeping standard.” left out
A hallmark of polyglutamine diseases is the accumulation of intracellular aggregates in the cytosol and nucleus of neurons. […] Cells were photographed using fluorescence microscopy and total cells expressing EFGP counted, and cells containing aggregates. […]

Row | SMILES | Aggregation (percentage of cells with aggregates versus total EGFP-positive cells) (HttQ103P-EGFP; 50 μM cystamine bitartrate as positive control, added simultaneously with induction) | Htt103Q-EGFP protein expression level (western blot) (Htt103Q-EGFP) | Htt103Q-EGFP protein expression level (western blot) (Htt103Q-EGFP; listed as Cystamine bitratrate) | Concentrations at which aggregation of poly-Q repeat Htt is decreased (HttQ103P-EGFP; inducible PC-12 cells) [µM] | Lowest concentration with significant decrease in the formation of aggregates (HttQ103P-EGFP; inducible PC-12 cells, FIG. 2) [µM] | Aggregation (percentage of cells with aggregates versus total EGFP-positive cells) (HttQ103P-EGFP; scyllo-inositol 0-100 μM added simultaneously with induction, 5 μM ponasterone 48 hrs) | Aggregation (percentage of cells with aggregates versus total EGFP-positive cells) (HttQ103P-EGFP; scyllo-inositol 0-100 μM added simultaneously with induction, 5 μM ponasterone 48 hrs, listed as Scyllo-inositol) | Concentrations at which poly-Q (Htt) protein is decreased / mutant Htt degradation is enhanced (Htt103Q-EGFP; inducible PC-12 cells, western blot) [µM] | Htt103Q-EGFP protein concentration (western blot, densitometry) (Htt103Q-EGFP; scyllo-inositol concentration series, normalized to GAPDH) | poly-Q protein expression (Htt103Q-EGFP; scyllo-inositol up to 10 μM concentration) | Cell viability, trypan blue exclusion assay (PC-12 cells) | Morphological examination of cells for changes associated with toxicity (PC-12 cells)
1 | NCCSSCCN.O=C(O)C(O)C(O)C(=O)O (stereo not drawn) [cystamine bitartrate, reference compound] | inhibits aggregate formation; also recorded: aggregated poly-Q is decreased; also recorded: decreased aggregation of poly-Q | no effect on Htt103 cellular protein concentration; also recorded: did not change protein expression levels | did not alter poly-Q protein expression | – | – | – | – | – | – | – | – | –
2 | O[C@H]1[C@H](O)[C@@H](O)[C@H](O)[C@@H](O)[C@@H]1O [scyllo-inositol] | – | – | – | 1 to 100 | 1 | concentration dependent effect of decreased aggregation | concentration dependent decrease in the formation of aggregates | 25 to 100 | concentration dependant decrease in Htt protein; also recorded: decreased the protein concentration | did not alter poly-Q protein expression | no effect on cell viability | did not detect changes associated with toxicity
